Measurements from patent publication US20210128566A1, “NOVEL FUNCTIONALIZED PURINE-2,6-DIONES AND THEIR USE IN MEDICINE” (THOMAS HELLEDAYS STIFTELSE FÖR MEDICINSK FORSKNING, priority 2017, published 2021).
pIC50: −log10 of the molar value.

Experiments:
[1] = target: recombinant human NUDT5 (Homo sapiens, UniProt Q9UKK9); test: NUDT5 inhibitor activity by malachite green reporter assay; type: biochemical; settings: 6 nM NUDT5, 50 μM ADP-Ribose, 15 minutes at room temperature
Method in brief: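 Coupled ADP-ribose hydrolysis in 10 mM Tris-acetate pH 8.0, 40 mM NaCl, 10 mM Mg acetate, 0.005% Tween-20, 1 mM DTT: 6 nM NUDT5, 50 μM ADP-Ribose, 10 U/ml alkaline phosphatase, 15 min at room temperature. Pi read by malachite green at 630 nm; compounds 100 μM–1.7 nM, 3-fold; IC50 by curve fit.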

[2] = test system: T47D^WT cells; test: Nuclear-targeted luciferase reporter of nuclear ATP production after R5020 stimulation; type: cell-based; settings: hormone-starved T47D^WT cells, compound for two hours, then R5020; Compound 19 at 1.5 μM, Compounds 16/17 at 15 μM
Description: Top, a representative measurement of bioluminescence intensity over 60 minutes of R5020 treatment; bottom, box-and-whisker plots of bioluminescence quantitations from six independent experiments (center line, median; box limits, upper and lower quartiles; whiskers, minima and maxima; individual data points also shown). ns—not significant, *—p<0.05, **—p<0.01, ***—p<0.001; repeated measures two-way ANOVA analysis.
In HR+ breast cancer cells, NUDT5 activity is required to produce ATP in the nucleus following hormone stimulation (Wright, R. H. G. et al., Science, 352, 1221-1225 (2016)). A nuclear-targeted luciferase reporter system was employed to monitor ATP production after hormone stimulation.
Hormone-starved T47D^WT cells were treated with example compounds as described herein for two hours and then stimulated with the progesterone receptor agonist, R5020, for the time points indicated.

Row | pIC50 ([1]; Table 3) | pIC50 ([1]; Table 4) | Structure (SMILES) | nuclear luminescence (nuclear ATP production) [2]
1 |  | 4.21 | Cn1c(=O)c2c(nc(Cl)n2Cc2nnc(-c3ccc(CS(C)(=O)=O)cc3)o2)n(C)c1=O [Example 103, 8-chloro-7-({5-[4-(methanesulfonylmethyl)phenyl]-1,3,4-oxadiazol-2-yl}methyl)-1,3-dimethyl-2,3,6,7-tetrahydro-1H-purine-2,6-dione] | 
2 |  | 4.61 | Cn1c(=O)c2c(nc(N3CCN(C(=O)OC(C)(C)C)CC3)n2Cc2nnc(-c3ccc(N)cc3)o2)n(C)c1=O [Example 105, tert-butyl 4-(7-{[5-(4-aminophenyl)-1,3,4-oxadiazol-2-yl]methyl}-1,3-dimethyl-2,6-dioxo-2,3,6,7-tetrahydro-1H-purin-8-yl)piperazine-1-carboxylate] | 
3 |  | 6.42 | Cn1c(=O)c2c(nc(N3CCNCC3)n2Cc2cnc(-c3ccc(Cl)cc3)s2)n(C)c1=O [Example 76, 7-{[2-(4-chlorophenyl)-1,3-thiazol-5-yl]methyl}-1,3-dimethyl-8-(piperazin-1-yl)-2,3,6,7-tetrahydro-1H-purine-2,6-dione] | 
4 |  | 7.00 | Cn1c(=O)c2c(nc(N3CCNCC3)n2Cc2nnc(-c3ccc(Cl)cc3)o2)n(C)c1=O [Example 108, 7-{[5-(4-chlorophenyl)-1,3,4-oxadiazol-2-yl]methyl}-1,3-dimethyl-8-(piperazin-1-yl)-2,3,6,7-tetrahydro-1H-purine-2,6-dione] | 
5 |  | 7.31 | COc1cc(-c2nnc(Cn3c(SCCN)nc4c3c(=O)n(C)c(=O)n4C)o2)ccc1C [Example 142, 8-[(2-aminoethyl)sulfanyl]-7-{[5-(3-methoxy-4-methylphenyl)-1,3,4-oxadiazol-2-yl]methyl}-1,3-dimethyl-2,3,6,7-tetrahydro-1H-purine-2,6-dione] | 
6 |  | 6.54 | Cn1c(=O)c2c(nc(N3CCNCC3)n2Cc2nnc(-c3ccc([N+](=O)[O-])cc3)o2)n(C)c1=O [Example 115, 1,3-dimethyl-7-{[5-(4-nitrophenyl)-1,3,4-oxadiazol-2-yl]methyl}-8-(piperazin-1-yl)-2,3,6,7-tetrahydro-1H-purine-2,6-dione] | 
7 |  | 7.71 | Cn1c(=O)c2c(nc(NCC3CCN(C(=N)N)CC3)n2Cc2nnc(-c3ccc(Cl)c(Cl)c3)o2)n(C)c1=O [Example 85, 4-{[(7-{[5-(3,4-dichlorophenyl)-1,3,4-oxadiazol-2-yl]methyl}-1,3-dimethyl-2,6-dioxo-2,3,6,7-tetrahydro-1H-purin-8-yl)amino]methyl}piperidine-1-carboximidamide] | 
8 |  | 7.14 | COc1ccc(-c2nnc(Cn3c(Cl)nc4c3c(=O)n(C)c(=O)n4C)o2)cc1Cl [Example 99, 8-chloro-7-{[5-(3-chloro-4-methoxyphenyl)-1,3,4-oxadiazol-2-yl]methyl}-1,3-dimethyl-2,3,6,7-tetrahydro-1H-purine-2,6-dione] | 

The remaining lines, values behind:

Row | Structure (SMILES) | pIC50 ([1]; Table 3) | pIC50 ([1]; Table 4) | nuclear luminescence (nuclear ATP production) [2]
9 | CCN1CCN(c2nc3c(c(=O)n(C)c(=O)n3C)n2Cc2nnc(-c3ccc(Cl)c(Cl)c3)o2)CC1 [Example 17, 7-{[5-(3,4-dichlorophenyl)-1,3,4-oxadiazol-2-yl]methyl}-8-(4-ethylpiperazin-1-yl)-1,3-dimethyl-2,3,6,7-tetrahydro-1H-purine-2,6-dione] | 7.41 |  | Strong luminescence
10 | CCCCN1CCN(c2nc3c(c(=O)n(C)c(=O)n3C)n2Cc2nnc(-c3ccc(Cl)c(Cl)c3)o2)CC1 [Example 16, 8-(4-butylpiperazin-1-yl)-7-{[5-(3,4-dichlorophenyl)-1,3,4-oxadiazol-2-yl]methyl}-1,3-dimethyl-2,3,6,7-tetrahydro-1H-purine-2,6-dione] | 7.27 |  | Strong luminescence
11 | Cn1c(=O)c2c(nc(N3CCNCC3)n2Cc2nnc(-c3ccc(Cl)c(Cl)c3)o2)n(C)c1=O [Example 19, 7-{[5-(3,4-dichlorophenyl)-1,3,4-oxadiazol-2-yl]methyl}-1,3-dimethyl-8-(piperazin-1-yl)-2,3,6,7-tetrahydro-1H-purine-2,6-dione] | 7.54 |  | reduced nuclear luminescence
12 | COCCN1CCN(c2nc3c(c(=O)n(C)c(=O)n3C)n2Cc2nnc(-c3cccc(C)c3)o2)CC1 [Example 57, 8-[4-(2-methoxyethyl)piperazin-1-yl]-1,3-dimethyl-7-{[5-(3-methylphenyl)-1,3,4-oxadiazol-2-yl]methyl}-2,3,6,7-tetrahydro-1H-purine-2,6-dione] | < 6.00 |  | 
13 | Cn1c(=O)c2c(nc(N3CCC4(CC3)NC(=O)NC4=O)n2Cc2nnc(-c3ccc(Cl)c(Cl)c3)o2)n(C)c1=O [Example 22, 8-(7-{[5-(3,4-dichlorophenyl)-1,3,4-oxadiazol-2-yl]methyl}-1,3-dimethyl-2,6-dioxo-2,3,6,7-tetrahydro-1H-purin-8-yl)-1,3,8-triazaspiro[4.5]decane-2,4-dione] | 7.45 |  | 
14 | Cn1c(=O)c2c(nc(N3CCCC(O)C3)n2Cc2nnc(-c3ccc(Cl)c(Cl)c3)o2)n(C)c1=O (stereo not drawn) [Example 44, 7-{[5-(3,4-dichlorophenyl)-1,3,4-oxadiazol-2-yl]methyl}-8-(3-hydroxypiperidin-1-yl)-1,3-dimethyl-2,3,6,7-tetrahydro-1H-purine-2,6-dione] | 7.67 |  | 
15 | C[C@@H]1CN(c2nc3c(c(=O)n(C)c(=O)n3C)n2Cc2nnc(-c3ccc(Cl)c(Cl)c3)o2)CCN1 [Example 47, 7-{[5-(3,4-dichlorophenyl)-1,3,4-oxadiazol-2-yl]methyl}-1,3-dimethyl-8-[(3R)-3-methylpiperazin-1-yl]-2,3,6,7-tetrahydro-1H-purine-2,6-dione] | 7.92 |  | 
16 | Cn1c(=O)c2c(nc(N3CC4(COC4)C3)n2Cc2nnc(-c3ccc(Cl)c(Cl)c3)o2)n(C)c1=O [Example 12, 7-{[5-(3,4-dichlorophenyl)-1,3,4-oxadiazol-2-yl]methyl}-1,3-dimethyl-8-{2-oxa-6-azaspiro[3.3]heptan-6-yl}-2,3,6,7-tetrahydro-1H-purine-2,6-dione] | 7.37 |  | 
17 | Cn1c(=O)c2c(nc(N3CCC(CCO)CC3)n2Cc2nnc(-c3ccc(Cl)c(Cl)c3)o2)n(C)c1=O [Example 20, 7-{[5-(3,4-dichlorophenyl)-1,3,4-oxadiazol-2-yl]methyl}-8-[4-(2-hydroxyethyl)piperidin-1-yl]-1,3-dimethyl-2,3,6,7-tetrahydro-1H-purine-2,6-dione] | 7.52 |  | 
18 | Cn1c(=O)c2c(nc(-n3cccn3)n2Cc2nnc(-c3ccc(Cl)c(Cl)c3)o2)n(C)c1=O [Example 67, 7-{[5-(3,4-dichlorophenyl)-1,3,4-oxadiazol-2-yl]methyl}-1,3-dimethyl-8-(1H-pyrazol-1-yl)-2,3,6,7-tetrahydro-1H-purine-2,6-dione] |  | 6.70 | 
19 | CC1CN(c2nc3c(c(=O)n(C)c(=O)n3C)n2Cc2nnc(-c3ccc(Cl)c(Cl)c3)o2)CC(C)N1 (stereo not drawn) [Example 29, 7-{[5-(3,4-dichlorophenyl)-1,3,4-oxadiazol-2-yl]methyl}-8-(3,5-dimethylpiperazin-1-yl)-1,3-dimethyl-2,3,6,7-tetrahydro-1H-purine-2,6-dione] | 7.36 |  | 
20 | Cn1c(=O)c2c(nc(N3CCC(O)CC3)n2Cc2nnc(-c3ccc(Cl)c(Cl)c3)o2)n(C)c1=O [Example 37, 7-{[5-(3,4-dichlorophenyl)-1,3,4-oxadiazol-2-yl]methyl}-8-(4-hydroxypiperidin-1-yl)-1,3-dimethyl-2,3,6,7-tetrahydro-1H-purine-2,6-dione] | 7.70 |  | 
21 | CCN(CC)c1nc2c(c(=O)n(C)c(=O)n2C)n1Cc1nnc(-c2ccc(Cl)c(Cl)c2)o1 [Example 4, 7-{[5-(3,4-dichlorophenyl)-1,3,4-oxadiazol-2-yl]methyl}-8-(diethylamino)-1,3-dimethyl-2,3,6,7-tetrahydro-1H-purine-2,6-dione] | < 6.00 |  | 
